Reference: paper PMC9862597, “Anti-Colorectal Cancer Effects of a Novel Camptothecin Derivative PCC0208037 In Vitro and In Vivo” (Pharmaceuticals, 2022)

Key:
[1] = tested on: LS180 cells; assay: MTT cell viability assay, LS180; assay type: cell-based; details: Homo sapiens; LS180, MTT, 72 h, n = 3; read-out: IC50
Experimental: (§1) Cell viability was assessed using the MTT assay, as previously reported. Briefly, colorectal cancer cells (LS180, HCT116, CT-26, and HT-29 cells) were plated onto 96-well plates at 3000 cells per well and incubated overnight. […] Control cells were treated with DMSO at a final concentration of 0.1%. Cells were cultured with the compounds or medium for 72 h. The cells were then treated with MTT. The medium was then decanted, and DMSO was added and shaken until the color reaction was complete. The […] were read using a Molecular Devices SpectraMax M5 (San Jose, CA, USA) at OD570 nm. The half maximal inhibitory concentration (IC50) was calculated.

[2] = tested on: HCT116 cells; assay: MTT cell viability assay, HCT116; assay type: cell-based; details: Homo sapiens, HCT-116; HCT116, MTT, 72 h, n = 3; read-out: IC50
Experimental: as §1

[3] = tested on: CT-26 cells; assay: MTT cell viability assay, CT-26; assay type: cell-based; details: Mus musculus, CT26; CT-26, MTT, 72 h, n = 3
Experimental: as §1

[4] = tested on: HT-29 cells; assay: MTT cell viability assay, HT-29; assay type: cell-based; details: Homo sapiens; HT-29, MTT, 72 h, n = 3
Experimental: as §1

[5] = tested on: LS180 xenograft tumor; assay: Subcutaneous LS180 xenograft model; assay type: in vivo, nude mice; details: PCC0208037 5, 10, 20 mg/kg; CPT-11 10 mg/kg; i.v. once every 3 days
Experimental: To establish xenograft tumor models, RPMI 1640 and Matrigel were mixed at a 1:1 ratio. Colorectal cancer cells (LS180: 5 × 10^6 cells) were added to 0.1 mL of the mixture, and male nude mice were subcutaneously injected with colorectal cancer cells on the right side. […] Tumor volume and animal weight were measured every 3 days and continued until the end of the experiments. All mice were euthanized by cervical dislocation at the end of the experiment, and the xenograft tumors were removed and weighed.
Figure 8 Anti-tumor effect of PCC0208037 in the LS180 xenograft tumor model. (A) Representative tumors removed after the last treatment in each treatment group. (B) Body weight gain curves of mice bearing an LS180 xenograft tumor. (C) Tumor weights in the different groups of mice after 15 d of treatment.

[6] = Pharmacokinetic study, single intravenous dose; details: for AUCinf / AUClast: n = 3
Experimental: Blood samples were collected at 0.083 h, 0.25 h, 0.5 h, 1 h, 2 h, 4 h, 8 h, and 12 h after administration. Plasma was prepared after centrifugation at 6000× g for 5 min and then stored at −20 °C for further analysis.

[7] = PCC0208037- and CPT-11-induced toxicity in mice; details: 50 mg/kg/day i.p. for four days
[8] = target: T1, recombinant Topo I (Homo sapiens, UniProt P11387); assay: Topoisomerase I activity assay (DNA relaxation); assay type: biochemical; details: PCC0208037 100 and 10 nmol/L, SN-38 100 nmol/L, CPT-11 100 nmol/L; 30 min, 37 °C
T1 construct: purchased TopoGEN, Inc (Buena Vista, CO, USA) TG1018
T1 sequence (P11387 1-765): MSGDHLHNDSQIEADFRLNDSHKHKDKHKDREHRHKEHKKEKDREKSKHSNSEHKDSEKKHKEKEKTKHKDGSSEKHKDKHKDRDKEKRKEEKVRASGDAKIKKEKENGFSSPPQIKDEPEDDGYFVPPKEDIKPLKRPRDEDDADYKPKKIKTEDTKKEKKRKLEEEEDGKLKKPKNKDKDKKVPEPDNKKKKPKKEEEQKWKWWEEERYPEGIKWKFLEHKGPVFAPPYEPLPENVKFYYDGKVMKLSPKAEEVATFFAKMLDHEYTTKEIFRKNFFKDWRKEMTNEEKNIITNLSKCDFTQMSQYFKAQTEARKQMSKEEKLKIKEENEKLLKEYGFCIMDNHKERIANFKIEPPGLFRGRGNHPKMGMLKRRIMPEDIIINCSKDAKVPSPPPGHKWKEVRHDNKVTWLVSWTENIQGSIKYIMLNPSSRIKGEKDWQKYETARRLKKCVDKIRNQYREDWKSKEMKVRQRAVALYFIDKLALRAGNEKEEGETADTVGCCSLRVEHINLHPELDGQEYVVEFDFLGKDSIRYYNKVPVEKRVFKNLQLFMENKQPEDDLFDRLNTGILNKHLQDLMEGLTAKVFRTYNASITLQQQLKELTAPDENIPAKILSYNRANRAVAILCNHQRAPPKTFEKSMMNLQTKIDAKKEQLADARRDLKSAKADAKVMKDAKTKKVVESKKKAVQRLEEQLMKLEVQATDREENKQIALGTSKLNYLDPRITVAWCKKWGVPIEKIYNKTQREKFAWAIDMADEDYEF
Experimental: To determine whether PCC0208037 inhibited Topo I activity, a DNA relaxation assay was conducted. In this assay, supercoiled plasmid DNA was relaxed and nicked by recombinant Topo I, while no nicked DNA would be found when the Topo I enzyme was inhibited.
A Topoisomerase I Drug Screening Kit was used to detect the inhibitory activity of PCC0208037 against Topo I in the cell-free system. 1 IU Topo I and 250 ng of supercoiled plasmid DNA were pre-incubated with DMSO, PCC0208037 (100 nmol/L and 10 nmol/L), SN-38(100 nmol/L), or CPT (100 nmol/L) in a reaction buffer with a final volume of 20 μL and incubated for 30 min at 37 °C; then, the reaction was stopped by the addition of 2 ul of 10% SDS. Then, proteinase K was added to 50 ug/mL, incubated for 15 min at 37 °C, and 0.1 vol. of a loading buffer (0.25% bromophenol blue, 50% glycerol) was added. The supercoiled, relaxed, or nicked DNA was separated by 1% agarose gel in a 1 TAE (Tris-Acetate-EDTA) buffer. Ethidium bromide-stained agarose gel was photographed using Gel Doc XR.
Figure 4 Inhibition of Topo I activity by PCC0208037. […] Plasmid DNA was separated by an agarose gel and stained with ethidium bromide.

[9] = BALB/c, mouse, plasma, iv, 10 mg/kg
[10] = CPT-11 in plasma, 10 mg/kg CPT-11 i.v.
[11] = metabolite SN-38 in plasma after 10 mg/kg CPT-11 i.v.
[12] = metabolite SN-38 in plasma after 10.65 mg/kg PCC0208037 i.v.

SMILES | IC50 [1] [µM] | IC50 [2] [µM] | IC50 [3] [µM] | IC50 [4] [µM] | effect on body weight of tumor-bearing mice [5] | Cmax [6, 9] [ng/mL] | Tmax [6, 9] [h] | AUCinf [6, 10] [H * ng/mL] | AUClast [6, 10] [H * ng/mL] | colorectal tissue histomorphological examination (H&E) ([7]; colon after 7 days) | diarrhea score ([7]; later stage of study, p < 0.05 on 7th day) | mortality ([7]; seven-day observation) | recovery of body weight and food intake decrease ([7]; seven-day observation) | inhibition of Topo I activity (supercoiled plasmid DNA relaxation) [8] | AUCinf [6, 11] [H * ng/mL] | AUClast [6, 11] [H * ng/mL] | AUCinf [6, 12] [H * ng/mL] | AUClast [6, 12] [H * ng/mL]
CCc1c2c(nc3ccc(OC(=O)N4CCC(N5CCCCC5)CC4)cc13)-c1cc3c(c(=O)n1C2)COC(=O)[C@]3(O)CC [CPT-11, Irinotecan] | 3.17 ± 0.58 | > 50 | > 50 | > 50 | significant reduction in body weight | 481 ± 112 | 3.24 ± 2.19 | 393.1 ± 64.4 | 360.5 ±52.9 | extensive colorectal tissue damage | higher in the CPT-11-treated mice than in the PCC0208037-treated mice | No animal died | no apparent trend of recovery was observed |  |  |  |  | 
CCc1c2c(nc3ccc(O)cc13)-c1cc3c(c(=O)n1C2)COC(=O)[C@]3(O)CC [SN-38] | 0.12 ± 0.01 | 3.58 ± 0.21 | 0.44 ± 0.66 | 0.35 ± 0.02 |  |  |  |  |  |  |  |  |  | Topo I activity was inhibited | 431.5 ± 62.5 | 394.6 ± 46.32 | 919.7 ± 176.1 | 905.5 ± 173.7
